The values that follow come from PMC7161086 (Peptides, 2019).

For series [1], the system named is Staphylococcus aureus JE2 MRSA. As to the kind of experiment: MIC assay, broth microdilution. The class given is cell-based. On the technique in general: Dilution methods test growth across graded concentrations, often in twofold steps.
For another series, the system named is Escherichia coli K12. The series is described as follows: MIC assay, broth microdilution. It is filed as cell-based. The following applies: 37 °C, 24 h, MHB.
Series [2] concerns Staphylococcus aureus ATCC 43300 MRSA. As to the kind of experiment: MIC, additional antimicrobial activities. The following applies: for Minimal inhibitory concentration (MIC) Sa: Staphylococcus aureus ATCC 43300 MRSA. The class given is cell-based.
The subject of series [3] is Escherichia coli ATCC 25922. The series is described as follows: MIC, additional antimicrobial activities. It is filed as cell-based.
Series [4] deals with Psedomonas aeruginosa ATCC 27853. As to the kind of experiment: MIC, additional antimicrobial activities. The class given is cell-based.
For series [5], the system named is Acinetobacter baumannii ATCC 19606. As to the kind of experiment: MIC, additional antimicrobial activities. The class given is cell-based.
For series [6], the system named is Candida albicans ATCC 90028. The series is described as follows: MIC, additional antimicrobial activities. It is filed as cell-based.
In series [7] the test system is Cryptococcus neoformans var. grubii H99 ATCC 20882. The series is described as follows: MIC, additional antimicrobial activities. The class given is cell-based.
The test system of another series is human red blood cells. It is filed as cell-based.
The subject of series [8] is Klebsiella pneumoniae ATCC 700603.
Series [9] concerns HEK-293 human embryonic kidney cells (ATCC CRL-1573). The series is described as follows: Cytotoxicity, resazurin test. It is filed as cell-based. The following applies: performed by CO-ADD. (In general: The colour change of resazurin is a common sign of viable cells or microbes.)

Regarding GLFDVIRRVASVIGGL [AMP-012], the “Minimal inhibitory concentration (MIC) Sa” value in series [1] (Staphylococcus aureus JE2 MRSA, 37 °C, 24 h, MHB) came out at 16 µg/mL; in series [2], 16 µg/mL. In addition, the “fold increase in activity (decrease of MIC) against S. aureus” value in series [1] (relative to Cit 1.1) was 2 fold. The “Minimal inhibitory concentration (MIC) Ec” value (in the series with Escherichia coli K12; in [3]) was 32 µg/mL in each case. The “fold increase in activity (decrease of MIC) against MRSA strains” value in series [2] (relative to Cit 1.1, MRSA strains JE2 and ATCC 43300) came out at 2 fold. For the same substance, the “Minimal inhibitory concentration (MIC) Pa” value in series [4] is > 32 µg/mL. The “Minimal inhibitory concentration (MIC) Ab” value in [5] came out at 32 µg/mL. Also, in series [6], the “Minimal inhibitory concentration (MIC) Ca” value stood at 16 µg/mL. The “Minimal inhibitory concentration (MIC) Cn” value in series [7] came out at 16 µg/mL. Moreover, in the series on human red blood cells, the “HC50 Human red blood cells” value worked out at 18.2 µg/mL. Also, the “Minimal inhibitory concentration (MIC) Kp” value in [8] is > 32 µg/mL.

Take GLFDVI(Orn)(Orn)VASVIGGL [AMP-006]: the “Minimal inhibitory concentration (MIC) Sa” value in series [2] is 32 µg/mL. Besides, the “Minimal inhibitory concentration (MIC) Ec” value in series [3] is > 32 µg/mL. Also, the “Minimal inhibitory concentration (MIC) Pa” value in series [4] is > 32 µg/mL. Besides, the “Minimal inhibitory concentration (MIC) Ab” value in [5] is > 32 µg/mL. The “Minimal inhibitory concentration (MIC) Ca” value in [6] was > 32 µg/mL. Also, in [7], the “Minimal inhibitory concentration (MIC) Cn” value was 32 µg/mL. Moreover, the “IC50 HEK-293” value in [9] is > 32 µg/mL. The “Minimal inhibitory concentration (MIC) Kp” value in series [8] is > 32 µg/mL.
